Measurements taken from patent EP4810035A1, “TREATMENT OF MODERATE TO SEVERE PLAQUE PSORIASIS” (Ganzhou Hemay Pharmaceutical, Co., Ltd, priority 2023, dated 2025).

What was measured:
[1] = system: subjects with moderate to severe plaque psoriasis; test: Phase III study of moderate to severe plaque psoriasis (Example 4), double-blind placebo-controlled core period and open-label extension; conditions: for HADS Anxiety Score, Mean / HADS Depression Score, Mean: Experimental group (N=211)
Procedure: Tablets of the compound shown in Example 2 with a strength of 15 mg per tablet.
Control Drug: Placebo tablets matching the investigational drug with a strength of 0 mg per tablet.
• 1) Aged ≥ 18 years at the time of signing the Informed Consent Form (ICF), of any gender. • 2) Clinically diagnosed with stable plaque psoriasis, with a psoriasis history of ≥ 6 months (prior to randomization). • 3) The following requirements are met at screening and baseline: • a. Psoriasis Area and Severity Index (PASI) score ≥ 12; and • b. Static Physician Global Assessment (sPGA) score ≥ 3 (based on an sPGA 0-4 scale); and • c.
The treatment period consisted of two phases: during the double-blind core treatment period, subjects received 60 mg BID of the investigational drug or placebo for 16 weeks (week 0 to week 16); during the open-label extension treatment period, all subjects received 60 mg BID of the investigational drug for 36 weeks (week 16 to week 52).
A total of 305 subjects were enrolled (211 in the experimental group and 94 in the placebo group; including 105 T-SPOT positive subjects without active tuberculosis, 7 subjects with previously confirmed pulmonary tuberculosis, 76 subjects with a history of tuberculosis, and 1 subject with a history of tuberculous pleurisy).
The primary efficacy endpoint was the proportion of subjects achieving PASI 75 at week 16 compared to baseline. The key secondary efficacy endpoint was an sPGA 0/1 with a reduction of ≥2 points from baseline at week 16. Other secondary efficacy endpoints included the proportion of subjects achieving PASI-90, PASI-75, PASI-50, and both PASI-75 and sPGA 0/1 with a ≥ 2-point reduction from baseline at each visit, as well as the rate of change in BSA. Clinical observation and evaluation were conducted over the 16-week core treatment period, the 36-week extension treatment period and the 4-week follow-up period. The Hospital Anxiety and Depression Scale (HADS) was used as an assessment tool to observe and evaluate the anxiety and depression status of subjects at screening, the end of the 16-week core period and 4 weeks after the last dose.

[2] = system: patients with moderate to severe chronic plaque psoriasis; test: Clinical study on patients (Example 3), 16-week core treatment period, 36-week extension, 4-week follow-up, placebo-controlled; assay type: in vivo, human
Procedure: This study selected patients with moderate to severe chronic plaque psoriasis as target subjects. Specific criteria were set for disease duration, severity and extent (psoriasis history ≥ 6 months, PASI score ≥ 12, sPGA score ≥ 3, and BSA ≥ 10). […] Primary efficacy endpoint: PASI-75 at week 16. […] Improvement in pruritus symptoms and changes in DLQI scores were also evaluated. The study consisted of a 16-week core treatment period, a 36-week extension treatment period and a 4-week follow-up period. Subjects in the experimental group received 60 mg BID of the compound in Example 2. During the extension treatment period, subjects in the placebo group also received 60 mg BID of the compound in Example 2.

[3] = system: Patients with plaque psoriasis; test: Multicenter, randomized, double-blind, placebo-parallel controlled dose study in plaque psoriasis (Example 5); assay type: in vivo, human; conditions: for PASI-75 response rate (%): week 16
Procedure: This was a multicenter, randomized, double-blind, placebo-parallel controlled study. A total of 216 subjects were enrolled and randomized in a 1:1:1:1 ratio into the low-dose group (15 mg BID), mid-dose group (30 mg BID), high-dose group (60 mg BID) of the investigational drug, and the placebo group for a 16-week core treatment period. Upon completion of the core treatment, subjects in the low, mid and high-dose groups maintained their original doses for a 36-week extension treatment period. Subjects in the placebo group were switched to the mid-dose group (30 mg BID) for the 36-week extension treatment after completing the core period. All subjects completed a total of 52 weeks of treatment. Subjects who completed 52 weeks of treatment or discontinued prematurely should enter a 4-week follow-up period. […]

healthy Chinese subjects = test: Phase I clinical study, multiple oral doses (Example 6); assay type: in vivo, human; conditions: multiple oral doses of 15 mg BID, 30 mg BID, 60 mg BID, 75 mg BID; 36 healthy Chinese subjects
Procedure: A total of 36 healthy Chinese subjects participated in a phase I clinical study, in which multiple oral doses of 15 mg BID, 30 mg BID, 60 mg BID, 75 mg BID of the compound in Example 2, or a placebo were administered, respectively.

[4] = by the end of the clinical study
[5] = 16-week core treatment period, 60 mg BID, N=211

In the case of `CCOc1cc([C@@H](CS(C)(=O)=O)N2C(=O)c3csc(NC(C)=O)c3C2=O)ccc1OC` [Example 2, (S)-N-[5-[1-(3-ethoxy-4-methoxyphenyl)-2-(methylsulfonyl)ethyl]-4,6-dioxo-5,6-dihydro-5H-thieno[3,4-c]pyrrol-1-yl]acetamide], the death events ([1]; 60 mg BID) is reported as “No death events occurred”, the “incidence of adverse reaction: diarrhea” value ([1]; 60 mg BID) is reported as 11.4% and the “incidence of adverse reaction: dizziness” value ([1]; 60 mg BID) is reported as 9.0%. For the same molecule, the “incidence of adverse reaction: fatigue” value ([1]; 60 mg BID) was 8.5%, the “incidence of adverse reaction: headache” value ([1]; 60 mg BID) was 8.1% and the “incidence of adverse reaction: hypertriglyceridemia” value ([1]; 60 mg BID) was 5.7%. The “incidence of adverse reaction: increased stool frequency” value ([1]; 60 mg BID) was 10.4%, the “incidence of adverse reaction: nausea” value ([1]; 60 mg BID) was 23.7% and the “incidence of adverse reaction: vomiting” value ([1]; 60 mg BID) was 10.0%. For the same molecule, the “severity of adverse events leading to discontinuation” value (“severity of adverse events leading” below) ([1]; 60 mg BID) was “Grade 1 or Grade 2”, the “severity of the primary adverse reactions” value ([1]; 60 mg BID) was “Grade 1 or Grade 2” and the “time of occurrence of gastrointestinal reactions and nervous system abnormalities” value ([1]; 60 mg BID) was “mostly occurred within the first two weeks of administration”. For the same molecule, the “tuberculosis activation (reactivation)” value ([1]; 105 T-SPOT positive subjects without active tuberculosis, 7 with previously confirmed pulmonary tuberculosis, 76 with history of tuberculosis, 1 with history of tuberculous pleurisy, by the end of the study) was “no instances of tuberculosis activation (reactivation) were observed”, the “HADS Anxiety Score, Mean” value ([1]; Week 16, 60 mg BID) was 2.3 and the “HADS Depression Score, Mean” value ([1]; Week 16, 60 mg BID) was 3.0. For the same molecule, the “HADS Anxiety Score, Mean” value ([1]; Week 56, 60 mg BID) was 3.1, the “HADS Depression Score, Mean” value ([1]; Week 56, 60 mg BID) was 3.8 and the “chest X-ray or CT examinations” value ([1]; any of the subjects) was “No clinical abnormalities related to tuberculosis were found”. The “adverse events of depression or anxiety related to the investigational drug” value [1, 4] was “No adverse events of depression or anxiety related to the investigational drug were observed”, the “difference between the experimental group and the placebo group in mean HADS anxiety scores and mean HADS depression scores” value [1, 4] was “no statistically significant differences (P>0.05)” and the “occurrences of depression or suicidal ideation” value (“occurrences” below) [1, 4] was “no occurrences of depression or suicidal ideation”. For the same molecule, the “drug-related serious adverse events” value ([1]; core treatment period, 60 mg BID) was “No drug-related serious adverse events occurred”, the “PASI-50 efficacy endpoint in subjects who had failed prior adalimumab treatment” value ([1]; two subjects, 60 mg BID) was “both achieved the PASI-50 efficacy endpoint” and the “BSA rate of change (%)” value ([1]; week 16, 60 mg BID, N=211) was 65.0%. For the same molecule, the “Both PASI-75 and sPGA 0/1 and reduction of ≥2 points from baseline (%)” value ([1]; week 16, 60 mg BID, N=211) was 30.3%, the “DLQI change from baseline, (mean)” value ([1]; week 16, 60 mg BID, N=211) was 5.38 points and the “PASI-50 (%)” value ([1]; week 16, 60 mg BID, N=211) was 82.7%. The “PASI-75 (%)” value ([1]; week 16, 60 mg BID, N=211) was 53.6%, the “PASI-90 (%)” value ([1]; week 16, 60 mg BID, N=211) was 32.5% and the “sPGA score of 0/1 and reduction of ≥2 points from baseline (%)” value ([1]; week 16, 60 mg BID, N=211) was 31.3%. The deaths ([2]; 60 mg BID) was “No deaths occurred”, the “drug-related serious adverse events” value ([2]; 60 mg BID) was “No drug-related serious adverse events occurred” and the “severity of adverse events leading” value ([2]; 60 mg BID) was “all Grade 1 or Grade 2”. For the same molecule, the “severity of drug-related adverse events” value ([2]; 60 mg BID) was “primarily Grade 1 or Grade 2”, the “Secondary Efficacy Indicators, difference compared to the placebo group” value ([2]; 60 mg BID, P<0.0001) was “statistically significant differences” and the “DLQI (LS mean)” value [2, 5] was 5.38 points. For the same molecule, the PASI-90 [2, 5] was 32.5%, the tuberculosis reactivation ([2]; T-SPOT positive but non-active TB subjects, by the end of the clinical study) was “no tuberculosis reactivation occurred” and the “occurrences” value ([2]; by the end of the clinical study, any subjects) was “no occurrences of depression or suicidal ideation were observed”. The “proportion of subjects achieving PASI-75” value ([2]; week 16, 60 mg BID, N=211) was 53.6%, the “rate difference between the two groups (PASI-75)” value ([2]; week 16, Example 2 group vs placebo group) was 37.6% and the Chest imaging examinations ([2]; week 16 visit, T-SPOT positive but non-active TB subjects) was “no abnormalities”. For the same molecule, the “DLQI score change from baseline, Mean” value ([3]; 15mg BID Group (N=54)) was 4.9, the “PASI-50 response rate (%)” value ([3]; 15mg BID Group (N=54)) was 42.59% and the “PASI-75 & sPGA 0/1 score (%)” value ([3]; 15mg BID Group (N=54)) was 12.96%. The “PASI-90 response rate (%)” value ([3]; 15mg BID Group (N=54)) was 16.67%, the “sPGA 0/1 score (%)” value ([3]; 15mg BID Group (N=54)) was 14.81% and the “DLQI score change from baseline, Mean” value ([3]; 30mg BID Group (N=54)) was 6.1. The “PASI-50 response rate (%)” value ([3]; 30mg BID Group (N=54)) was 51.85%, the “PASI-75 & sPGA 0/1 score (%)” value ([3]; 30mg BID Group (N=54)) was 14.81% and the “PASI-90 response rate (%)” value ([3]; 30mg BID Group (N=54)) was 11.11%. The “sPGA 0/1 score (%)” value ([3]; 30mg BID Group (N=54)) was 14.81%, the “DLQI score change from baseline, Mean” value ([3]; 60mg BID Group (N=54)) was 7.1 and the “PASI-50 response rate (%)” value ([3]; 60mg BID Group (N=54)) was 62.96%. For the same molecule, the “PASI-75 & sPGA 0/1 score (%)” value ([3]; 60mg BID Group (N=54)) was 24.07%, the “PASI-90 response rate (%)” value ([3]; 60mg BID Group (N=54)) was 20.37% and the “sPGA 0/1 score (%)” value ([3]; 60mg BID Group (N=54)) was 24.07%. The “Population pharmacokinetics and exposure-response analysis” value ([3]; 15, 30, 60 mg BID) was “the efficacy response rate increased with increasing doses”, the death events ([3]; 15, 30, 60 mg BID) was “No death events occurred” and the “adverse events of depression or anxiety” value [3, 4] was “no adverse events of depression or anxiety were reported”. For the same molecule, the “occurrences” value [3, 4] was “no occurrences of depression or suicidal ideation were observed”, the “drug-related serious adverse events” value ([3]; core treatment period) was “No drug-related serious adverse events occurred” and the “Adverse events with an incidence of ≥10%” value ([3]; double-blind core treatment period (weeks 1 to 16)) was “diarrhea, nausea, headache, and fatigue”. The “drug-related adverse events with an incidence of ≥5% in any of the low, medium or high-dose groups” value ([3]; double-blind core treatment period (weeks 1 to 16), 15, 30, 60 mg BID) was “increased triglycerides, increased lipids, diarrhea, nausea, abdominal discomfort, hyperlipidemia, headache, and fatigue”, the “severity of adverse events leading” value ([3]; in vivo) was “Grade 1 or Grade 2” and the “PASI-75 and PASI-90 efficacy endpoints in a subject who had failed adalimumab therapy” value ([3]; one subject) was “also achieved the PASI-75 and PASI-90 efficacy endpoints”. The “PASI-50 efficacy endpoint in subjects who had failed prior biologic therapy” value ([3]; one subject failed adalimumab, one failed secukinumab, one failed TNF-α monoclonal antibody therapy) was “all achieved the PASI-50 efficacy endpoint”, the “PASI-75 response rate (%)” value ([3]; 15mg BID Group (N=54)) was 18.52% and the “PASI-75 response rate (%)” value ([3]; 30mg BID Group (N=54)) was 25.93%. The “PASI-75 response rate (%)” value ([3]; 60mg BID Group (N=54)) was 46.30% and the safety and tolerability (healthy Chinese subjects) was “good safety and tolerability”.
